Experimental data from article PMC6199744, “Development of Chemical Proteomics for the Folateome and Analysis of the Kinetoplastid Folateome” (ACS Infectious Diseases, 2018).
Like-named read-outs stand apart in the source and are kept apart here.

Assays:
Type in all cases: binding
[1] = molecular target: T1, HeLa cell extract proteins (Homo sapiens, UniProt O43747)
T1 construct: endogenous in cells; host or cells: HeLa cell extract
T1 sequence (O43747 1-822): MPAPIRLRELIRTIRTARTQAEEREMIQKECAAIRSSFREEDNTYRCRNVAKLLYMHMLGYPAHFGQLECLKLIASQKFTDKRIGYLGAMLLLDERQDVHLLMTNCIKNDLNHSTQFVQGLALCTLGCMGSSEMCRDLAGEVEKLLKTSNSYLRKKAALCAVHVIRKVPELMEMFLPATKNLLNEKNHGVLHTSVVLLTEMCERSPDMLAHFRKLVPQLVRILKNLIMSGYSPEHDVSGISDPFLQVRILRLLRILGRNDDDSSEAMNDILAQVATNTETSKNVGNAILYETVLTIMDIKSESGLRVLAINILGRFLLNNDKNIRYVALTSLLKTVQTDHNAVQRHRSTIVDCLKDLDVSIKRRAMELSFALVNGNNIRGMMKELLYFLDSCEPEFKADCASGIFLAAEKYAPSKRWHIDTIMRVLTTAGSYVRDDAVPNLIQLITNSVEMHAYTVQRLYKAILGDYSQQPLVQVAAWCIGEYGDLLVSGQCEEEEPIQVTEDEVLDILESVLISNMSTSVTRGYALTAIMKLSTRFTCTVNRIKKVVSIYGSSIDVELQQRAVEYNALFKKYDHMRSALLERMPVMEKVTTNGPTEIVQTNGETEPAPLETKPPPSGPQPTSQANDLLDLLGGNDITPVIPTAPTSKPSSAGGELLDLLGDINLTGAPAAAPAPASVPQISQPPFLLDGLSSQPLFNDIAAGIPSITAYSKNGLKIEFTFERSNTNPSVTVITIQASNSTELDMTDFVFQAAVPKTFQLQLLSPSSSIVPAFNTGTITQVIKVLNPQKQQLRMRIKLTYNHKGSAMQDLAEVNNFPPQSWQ

[2] = molecular target: T2, HeLa cell extract proteins (Homo sapiens, UniProt P07437)
T2 construct: endogenous in cells; host or cells: HeLa cell extract

[3] = molecular target: T3, HeLa cell extract proteins (Homo sapiens, UniProt P28066)
T3 construct: endogenous in cells; host or cells: HeLa cell extract
T3 sequence (P28066 1-241): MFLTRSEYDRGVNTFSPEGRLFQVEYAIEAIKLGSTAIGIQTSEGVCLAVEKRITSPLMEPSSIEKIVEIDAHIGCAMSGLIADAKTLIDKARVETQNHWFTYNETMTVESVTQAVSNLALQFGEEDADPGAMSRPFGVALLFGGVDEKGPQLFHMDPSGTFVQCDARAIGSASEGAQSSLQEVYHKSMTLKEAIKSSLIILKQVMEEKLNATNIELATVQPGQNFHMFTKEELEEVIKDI

[4] = molecular target: T4, HeLa cell extract proteins (Homo sapiens, UniProt P38606)
T4 construct: endogenous in cells; host or cells: HeLa cell extract

[5] = molecular target: T5, HeLa cell extract proteins (Homo sapiens, UniProt P51659)
T5 construct: endogenous in cells; host or cells: HeLa cell extract
T5 sequence (P51659 1-736): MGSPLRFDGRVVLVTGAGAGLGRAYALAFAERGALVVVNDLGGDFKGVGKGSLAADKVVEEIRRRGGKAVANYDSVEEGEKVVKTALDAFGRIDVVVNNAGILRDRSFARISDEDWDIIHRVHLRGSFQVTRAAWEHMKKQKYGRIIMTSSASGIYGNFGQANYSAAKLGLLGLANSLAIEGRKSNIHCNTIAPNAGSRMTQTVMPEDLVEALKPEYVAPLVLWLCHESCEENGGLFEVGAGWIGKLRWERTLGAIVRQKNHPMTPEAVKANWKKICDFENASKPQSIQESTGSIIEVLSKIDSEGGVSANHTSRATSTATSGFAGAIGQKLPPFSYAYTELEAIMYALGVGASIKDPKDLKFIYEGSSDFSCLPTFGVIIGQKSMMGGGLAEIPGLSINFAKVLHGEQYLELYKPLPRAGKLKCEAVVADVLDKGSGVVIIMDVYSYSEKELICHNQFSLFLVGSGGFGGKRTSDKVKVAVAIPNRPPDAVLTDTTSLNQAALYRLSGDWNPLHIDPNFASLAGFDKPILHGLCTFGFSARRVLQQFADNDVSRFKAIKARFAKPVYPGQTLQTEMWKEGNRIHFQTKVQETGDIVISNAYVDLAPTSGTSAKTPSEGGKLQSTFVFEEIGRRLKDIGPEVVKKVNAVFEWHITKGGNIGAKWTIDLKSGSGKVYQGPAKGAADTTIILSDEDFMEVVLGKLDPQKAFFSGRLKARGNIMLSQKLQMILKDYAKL

[6] = molecular target: T6, HeLa cell extract proteins (Homo sapiens, UniProt Q9BQA1)
T6 construct: endogenous in cells; host or cells: HeLa cell extract

[7] = molecular target: T7, HeLa cell extract proteins (Homo sapiens, UniProt Q9HBU6)
T7 construct: endogenous in cells; host or cells: HeLa cell extract
T7 sequence (Q9HBU6 1-452): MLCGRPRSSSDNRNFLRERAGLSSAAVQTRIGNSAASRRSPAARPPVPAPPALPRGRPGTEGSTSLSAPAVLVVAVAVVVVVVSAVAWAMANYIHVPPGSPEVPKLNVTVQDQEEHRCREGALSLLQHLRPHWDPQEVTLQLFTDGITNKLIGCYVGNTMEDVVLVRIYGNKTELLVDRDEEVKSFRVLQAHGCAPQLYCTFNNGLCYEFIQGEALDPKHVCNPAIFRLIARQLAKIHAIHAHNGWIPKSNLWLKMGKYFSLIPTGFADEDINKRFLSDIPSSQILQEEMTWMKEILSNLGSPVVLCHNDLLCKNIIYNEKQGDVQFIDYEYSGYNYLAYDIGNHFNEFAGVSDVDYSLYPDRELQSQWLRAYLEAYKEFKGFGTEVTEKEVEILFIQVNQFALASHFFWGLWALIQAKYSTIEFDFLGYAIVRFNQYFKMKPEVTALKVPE

[8] = molecular target: T8, HeLa cell extract proteins (Homo sapiens, UniProt Q9NPA3)
T8 construct: endogenous in cells; host or cells: HeLa cell extract

[9] = molecular target: T9, HeLa cell extract proteins (Homo sapiens, UniProt Q9NR28)
T9 construct: endogenous in cells; host or cells: HeLa cell extract
T9 sequence (Q9NR28 22-239): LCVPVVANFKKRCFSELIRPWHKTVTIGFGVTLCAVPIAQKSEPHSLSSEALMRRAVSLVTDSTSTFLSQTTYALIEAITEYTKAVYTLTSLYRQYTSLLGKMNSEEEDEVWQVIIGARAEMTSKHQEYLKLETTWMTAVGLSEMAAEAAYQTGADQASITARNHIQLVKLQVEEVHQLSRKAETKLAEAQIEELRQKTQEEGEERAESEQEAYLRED

[10] = HeLa, protein HSD17B4 (CDNA FLJ55431, HIGHLY SIMILAR TO PEROXISOMAL MULTIFUNCTIONAL ENZYME TYPE 2)
[11] = HeLa, protein DIABLO (DIABLO HOMOLOG, MIT[…])

T4 sequence (P38606 whole entry): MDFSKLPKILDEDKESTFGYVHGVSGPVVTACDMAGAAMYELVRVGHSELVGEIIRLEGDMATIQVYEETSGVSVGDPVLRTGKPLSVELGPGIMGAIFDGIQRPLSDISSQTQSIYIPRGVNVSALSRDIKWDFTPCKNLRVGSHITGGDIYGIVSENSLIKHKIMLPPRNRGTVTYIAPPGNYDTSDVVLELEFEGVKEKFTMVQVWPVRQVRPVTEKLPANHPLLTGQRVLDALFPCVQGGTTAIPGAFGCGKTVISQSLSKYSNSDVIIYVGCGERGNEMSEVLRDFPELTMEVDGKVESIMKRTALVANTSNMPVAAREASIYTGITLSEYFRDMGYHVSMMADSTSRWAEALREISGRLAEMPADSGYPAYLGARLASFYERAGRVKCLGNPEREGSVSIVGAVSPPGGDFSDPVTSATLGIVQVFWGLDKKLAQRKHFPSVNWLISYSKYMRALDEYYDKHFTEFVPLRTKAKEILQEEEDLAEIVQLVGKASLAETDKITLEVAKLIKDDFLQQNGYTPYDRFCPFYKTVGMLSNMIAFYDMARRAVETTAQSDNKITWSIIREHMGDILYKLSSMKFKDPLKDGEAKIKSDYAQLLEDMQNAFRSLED
T2 sequence (P07437 whole entry): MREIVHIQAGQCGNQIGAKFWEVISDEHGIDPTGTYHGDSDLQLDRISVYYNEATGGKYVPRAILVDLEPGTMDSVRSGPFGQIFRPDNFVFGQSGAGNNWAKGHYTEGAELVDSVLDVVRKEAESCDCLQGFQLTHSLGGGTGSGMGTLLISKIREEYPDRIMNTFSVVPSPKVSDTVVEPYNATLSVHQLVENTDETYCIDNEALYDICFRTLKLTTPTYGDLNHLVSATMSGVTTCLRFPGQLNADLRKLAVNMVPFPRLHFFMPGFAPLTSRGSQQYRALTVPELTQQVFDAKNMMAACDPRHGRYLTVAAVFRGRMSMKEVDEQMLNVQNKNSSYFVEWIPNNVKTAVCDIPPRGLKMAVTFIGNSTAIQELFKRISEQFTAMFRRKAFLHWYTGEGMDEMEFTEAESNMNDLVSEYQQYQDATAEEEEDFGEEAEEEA
T8 sequence (Q9NPA3 whole entry): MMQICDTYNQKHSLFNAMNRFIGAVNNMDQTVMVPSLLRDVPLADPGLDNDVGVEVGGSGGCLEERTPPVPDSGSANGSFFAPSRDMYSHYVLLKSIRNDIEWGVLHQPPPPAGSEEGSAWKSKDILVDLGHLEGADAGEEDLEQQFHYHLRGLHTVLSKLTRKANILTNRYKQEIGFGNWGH
T6 sequence (Q9BQA1 whole entry): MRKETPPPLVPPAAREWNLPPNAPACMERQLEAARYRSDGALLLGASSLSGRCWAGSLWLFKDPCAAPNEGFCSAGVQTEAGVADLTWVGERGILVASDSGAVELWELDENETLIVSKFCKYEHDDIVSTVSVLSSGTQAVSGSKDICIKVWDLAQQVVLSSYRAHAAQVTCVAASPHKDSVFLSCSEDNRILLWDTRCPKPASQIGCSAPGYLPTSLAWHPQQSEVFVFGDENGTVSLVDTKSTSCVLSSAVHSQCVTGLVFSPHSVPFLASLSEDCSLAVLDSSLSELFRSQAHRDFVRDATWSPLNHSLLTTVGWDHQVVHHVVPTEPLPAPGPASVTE

## Nc1nc2c(c(=O)[nH]1)N(C=O)C(CNc1ccc(C(=O)N[C@@H](CCC(=O)O)C(=O)O)cc1)CN2 (stereo partly drawn) [LEU, leucovorin]
[1]; HeLa, protein AP1G1
  fold changes relative to vehicle control: 1.1
[2]; protein TUBB, HeLa
  fold changes relative to vehicle control: 0.91
[3]; HeLa, captured protein PSMA5
  fold changes relative to vehicle control: 1.03
[4]; HeLa, protein ATP6V1A
  fold changes relative to vehicle control: 1
[5]; [10]
  fold changes relative to vehicle control: 1.25
[6]; HeLa, protein WDR77
  fold changes relative to vehicle control: 0.83
[7]; protein ETNK1, HeLa
  fold changes relative to vehicle control: 0.99
[8]; HeLa, protein MIG12
  fold changes relative to vehicle control: 0.91
[9]; [11]
  fold changes relative to vehicle control: 1.06

## NCCCNc1ccc(C(=O)NC(CCC(=O)O)C(=O)O)cc1 (stereo not drawn) [compound 7]
[1]; HeLa, protein AP1G1
  fold changes relative to vehicle control: 1.17
[2]; protein TUBB, HeLa
  fold changes relative to vehicle control: 0.98
[3]; HeLa, captured protein PSMA5
  fold changes relative to vehicle control: 0.99
[4]; HeLa, protein ATP6V1A
  fold changes relative to vehicle control: 0.93
[5]; [10]
  fold changes relative to vehicle control: 1.07
[6]; HeLa, protein WDR77
  fold changes relative to vehicle control: 0.96
[7]; protein ETNK1, HeLa
  fold changes relative to vehicle control: 1.01
[8]; HeLa, protein MIG12
  fold changes relative to vehicle control: 1.11
[9]; [11]
  fold changes relative to vehicle control: 1.05

## CCCCCCOc1cccc(Cc2cnc(N)nc2N)c1 [compound 2]
[1]; protein AP1G1, HeLa
  fold changes relative to vehicle control: 1.51
[2]; HeLa, protein TUBB
  fold changes relative to vehicle control: 0.82
[3]; HeLa, protein PSMA5
  fold changes relative to vehicle control: 1.19
[4]; protein ATP6V1A, HeLa
  fold changes relative to vehicle control: 1.5
[5]; protein HSD17B4, HeLa
  fold changes relative to vehicle control: 1.22
[6]; protein WDR77, HeLa
  fold changes relative to vehicle control: 1.33
[7]; HeLa, protein ETNK1
  fold changes relative to vehicle control: 0.99
[8]; captured protein MIG12, HeLa
  fold changes relative to vehicle control: 1
[9]; captured protein DIABLO, HeLa
  fold changes relative to vehicle control: 0.97

## CCCCCCOc1ccc(Cc2cnc(N)nc2N)cc1 [compound 1]
[1]; protein AP1G1, HeLa
  fold changes relative to vehicle control: 1.19
[2]; HeLa, protein TUBB
  fold changes relative to vehicle control: 0.93
[3]; HeLa, protein PSMA5
  fold changes relative to vehicle control: 1.05
[4]; protein ATP6V1A, HeLa
  fold changes relative to vehicle control: 1.04
[5]; protein HSD17B4, HeLa
  fold changes relative to vehicle control: 1.07
[6]; protein WDR77, HeLa
  fold changes relative to vehicle control: 1.12
[7]; HeLa, protein ETNK1
  fold changes relative to vehicle control: 0.94
[8]; captured protein MIG12, HeLa
  fold changes relative to vehicle control: 0.84
[9]; captured protein DIABLO, HeLa
  fold changes relative to vehicle control: 1.09

## Nc1nc2cccc(-c3ccccc3)c2n1Cc1ccc(Cl)c(Cl)c1 [compound 3]
[1]; protein AP1G1, HeLa
  fold changes relative to vehicle control: 0.97
[2]; HeLa, protein TUBB
  fold changes relative to vehicle control: 1.02
[3]; HeLa, protein PSMA5
  fold changes relative to vehicle control: 1
[4]; protein ATP6V1A, HeLa
  fold changes relative to vehicle control: 0.83
[5]; protein HSD17B4, HeLa
  fold changes relative to vehicle control: 1.14
[6]; protein WDR77, HeLa
  fold changes relative to vehicle control: 1
[7]; HeLa, protein ETNK1
  fold changes relative to vehicle control: 1.53
[8]; captured protein MIG12, HeLa
  fold changes relative to vehicle control: 0.95
[9]; captured protein DIABLO, HeLa
  fold changes relative to vehicle control: 1.01

## NCCOCCOCC(=O)Nc1nc2ncc(CNc3ccc(C(=O)NC(CCC(=O)O)C(=O)O)cc3)nc2c(=O)[nH]1 (stereo not drawn) [compound 6]
[1]; HeLa, protein AP1G1
  fold changes relative to vehicle control: 1.17
[2]; protein TUBB, HeLa
  fold changes relative to vehicle control: 0.95
[3]; HeLa, captured protein PSMA5
  fold changes relative to vehicle control: 1.08
[4]; HeLa, protein ATP6V1A
  fold changes relative to vehicle control: 1.04
[5]; [10]
  fold changes relative to vehicle control: 1.02
[6]; HeLa, protein WDR77
  fold changes relative to vehicle control: 1.03
[7]; protein ETNK1, HeLa
  fold changes relative to vehicle control: 0.96
[8]; HeLa, protein MIG12
  fold changes relative to vehicle control: 1.1
[9]; HeLa, protein DIABLO (DIABLO HOMOLOG, MITOCHONDRIAL PRECURSOR)
  fold changes relative to vehicle control: 0.99

## Nc1nc2[nH]cc(CCc3ccc(C(=O)N[C@@H](CCC(=O)O)C(=O)O)cc3)c2c(=O)[nH]1 [PTX, pemetrexed]
[1]
  fold changes relative to vehicle control: 1.09
[2]
  fold changes relative to vehicle control: 0.84
[3]
  fold changes relative to vehicle control: 1.04
[4]
  fold changes relative to vehicle control: 0.9
[5]
  fold changes relative to vehicle control: 1.15
[6]
  fold changes relative to vehicle control: 0.81
[7]
  fold changes relative to vehicle control: 0.91
[8]
  fold changes relative to vehicle control: 0.96
[9]
  fold changes relative to vehicle control: 1.01
